Measured values taken from ChEMBL document CHEMBL4507320, “Data for DCP probe NVS-MALT1” (2021).

Columns and labels:
[1] = system: Tyrosine-protein kinase ABL1 (Homo sapiens), P00519 [E255K]; conditions: Compound concentration 1000.0 nM
[2] = system: Tyrosine-protein kinase ABL1 (Homo sapiens), P00519 [F317L]; conditions: Compound concentration 1000.0 nM
[3] = target: Activin receptor type-1B (Homo sapiens) (UniProt P36896); conditions: Compound concentration 1000.0 nM
[4] = target: RAC-gamma serine/threonine-protein kinase (Homo sapiens) (UniProt Q9Y243); conditions: Compound concentration 1000.0 nM
[5] = target: 5'-AMP-activated protein kinase catalytic subunit alpha-2 (Homo sapiens) (UniProt P54646); conditions: Compound concentration 1000.0 nM
[6] = target: Tyrosine-protein kinase Blk (Homo sapiens) (UniProt P51451); conditions: Compound concentration 1000.0 nM
[7] = target: Bone morphogenetic protein receptor type-2 (Homo sapiens) (UniProt Q13873); conditions: Compound concentration 1000.0 nM
[8] = target: Serine/threonine-protein kinase BRSK2 (Homo sapiens) (UniProt Q8IWQ3); conditions: Compound concentration 1000.0 nM
[9] = target: Calcium/calmodulin-dependent protein kinase kinase 1 (Homo sapiens) (UniProt Q8N5S9); conditions: Compound concentration 1000.0 nM
[10] = target: Cyclin-dependent kinase 4 (Homo sapiens) (UniProt P11802); conditions: Compound concentration 1000.0 nM
[11] = target: Tyrosine-protein kinase CSK (Homo sapiens) (UniProt P41240); conditions: Compound concentration 1000.0 nM
[12] = target: Casein kinase I isoform gamma-2 (Homo sapiens) (UniProt P78368); conditions: Compound concentration 1000.0 nM
[13] = target: Death-associated protein kinase 2 (Homo sapiens) (UniProt Q9UIK4); conditions: Compound concentration 1000.0 nM
[14] = target: Discoidin domain-containing receptor 2 (Homo sapiens) (UniProt Q16832); conditions: Compound concentration 1000.0 nM
[15] = target: Dual specificity tyrosine-phosphorylation-regulated kinase 2 (Homo sapiens) (UniProt Q92630); conditions: Compound concentration 1000.0 nM
[16] = system: Epidermal growth factor receptor (Homo sapiens), P00533 [G719S]; conditions: Compound concentration 1000.0 nM
[17] = target: Eukaryotic translation initiation factor 2-alpha kinase 1 (Homo sapiens) (UniProt Q9BQI3); conditions: Compound concentration 1000.0 nM
[18] = target: Serine/threonine-protein kinase/endoribonuclease IRE1 (Homo sapiens) (UniProt O75460); conditions: Compound concentration 1000.0 nM
[19] = target: Tyrosine-protein kinase Fes/Fps (Homo sapiens) (UniProt P07332); conditions: Compound concentration 1000.0 nM
[20] = target: Fibroblast growth factor receptor 2 (Homo sapiens) (UniProt P21802); conditions: Compound concentration 1000.0 nM
[21] = target: Tyrosine-protein kinase Fgr (Homo sapiens) (UniProt P09769); conditions: Compound concentration 1000.0 nM
[22] = system: Receptor-type tyrosine-protein kinase FLT3 (Homo sapiens), P36888 [UNDEFINED MUTATION]; conditions: Compound concentration 1000.0 nM
[23] = target: Glycogen synthase kinase-3 alpha (Homo sapiens) (UniProt P49840); conditions: Compound concentration 1000.0 nM
[24] = target: Serine/threonine-protein kinase ICK (Homo sapiens) (UniProt Q9UPZ9); conditions: Compound concentration 1000.0 nM
[25] = target: Inhibitor of nuclear factor kappa-B kinase subunit alpha (Homo sapiens) (UniProt O15111); conditions: Compound concentration 1000.0 nM
[26] = target: Tyrosine-protein kinase JAK1 (Homo sapiens) (UniProt P23458); conditions: Compound concentration 1000.0 nM
[27] = target: Mitogen-activated protein kinase kinase kinase kinase 4 (Homo sapiens) (UniProt O95819); conditions: Compound concentration 1000.0 nM
[28] = target: MAP/microtubule affinity-regulating kinase 4 (Homo sapiens) (UniProt Q96L34); conditions: Compound concentration 1000.0 nM
[29] = target: Dual specificity mitogen-activated protein kinase kinase 7 (Homo sapiens) (UniProt O14733); conditions: Compound concentration 1000.0 nM
[30] = target: MAP kinase-interacting serine/threonine-protein kinase 2 (Homo sapiens) (UniProt Q9HBH9); conditions: Compound concentration 1000.0 nM
[31] = target: Mitogen-activated protein kinase kinase kinase 10 (Homo sapiens) (UniProt Q02779); conditions: Compound concentration 1000.0 nM
[32] = target: Serine/threonine-protein kinase MRCK alpha (Homo sapiens) (UniProt Q5VT25); conditions: Compound concentration 1000.0 nM
[33] = target: Serine/threonine-protein kinase 4 (Homo sapiens) (UniProt Q13043); conditions: Compound concentration 1000.0 nM
[34] = target: Mitogen-activated protein kinase kinase kinase 14 (Homo sapiens) (UniProt Q99558); conditions: Compound concentration 1000.0 nM
[35] = target: Serine/threonine-protein kinase NLK (Homo sapiens) (UniProt Q9UBE8); conditions: Compound concentration 1000.0 nM
[36] = target: Phosphatidylinositol 3-kinase C2 domain-containing subunit gamma (Homo sapiens) (UniProt O75747); conditions: Compound concentration 1000.0 nM
[37] = system: Phosphatidylinositol 4,5-bisphosphate 3-kinase catalytic subunit alpha isoform (Homo sapiens), P42336 [E545A]; conditions: Compound concentration 1000.0 nM
[38] = target: cAMP-dependent protein kinase catalytic subunit alpha (Homo sapiens) (UniProt P17612); conditions: Compound concentration 1000.0 nM
[39] = target: Serine/threonine-protein kinase PLK2 (Homo sapiens) (UniProt Q9NYY3); conditions: Compound concentration 1000.0 nM
[40] = target: Serine/threonine-protein kinase PRP4 homolog (Homo sapiens) (UniProt Q13523); conditions: Compound concentration 1000.0 nM
[41] = target: Ribosomal protein S6 kinase alpha-4 (Homo sapiens) (UniProt O75676); conditions: Compound concentration 1000.0 nM
[42] = target: STE20-like serine/threonine-protein kinase (Homo sapiens) (UniProt Q9H2G2); conditions: Compound concentration 1000.0 nM
[43] = target: TGF-beta receptor type-2 (Homo sapiens) (UniProt P37173); conditions: Compound concentration 1000.0 nM
[44] = target: Sigma non-opioid intracellular receptor 1 (Homo sapiens, UniProt Q99720); conditions: Compound concentration 10.0 uM

Tyrosine-protein kinase JAK1 (Homo sapiens), sequence (P23458 whole entry): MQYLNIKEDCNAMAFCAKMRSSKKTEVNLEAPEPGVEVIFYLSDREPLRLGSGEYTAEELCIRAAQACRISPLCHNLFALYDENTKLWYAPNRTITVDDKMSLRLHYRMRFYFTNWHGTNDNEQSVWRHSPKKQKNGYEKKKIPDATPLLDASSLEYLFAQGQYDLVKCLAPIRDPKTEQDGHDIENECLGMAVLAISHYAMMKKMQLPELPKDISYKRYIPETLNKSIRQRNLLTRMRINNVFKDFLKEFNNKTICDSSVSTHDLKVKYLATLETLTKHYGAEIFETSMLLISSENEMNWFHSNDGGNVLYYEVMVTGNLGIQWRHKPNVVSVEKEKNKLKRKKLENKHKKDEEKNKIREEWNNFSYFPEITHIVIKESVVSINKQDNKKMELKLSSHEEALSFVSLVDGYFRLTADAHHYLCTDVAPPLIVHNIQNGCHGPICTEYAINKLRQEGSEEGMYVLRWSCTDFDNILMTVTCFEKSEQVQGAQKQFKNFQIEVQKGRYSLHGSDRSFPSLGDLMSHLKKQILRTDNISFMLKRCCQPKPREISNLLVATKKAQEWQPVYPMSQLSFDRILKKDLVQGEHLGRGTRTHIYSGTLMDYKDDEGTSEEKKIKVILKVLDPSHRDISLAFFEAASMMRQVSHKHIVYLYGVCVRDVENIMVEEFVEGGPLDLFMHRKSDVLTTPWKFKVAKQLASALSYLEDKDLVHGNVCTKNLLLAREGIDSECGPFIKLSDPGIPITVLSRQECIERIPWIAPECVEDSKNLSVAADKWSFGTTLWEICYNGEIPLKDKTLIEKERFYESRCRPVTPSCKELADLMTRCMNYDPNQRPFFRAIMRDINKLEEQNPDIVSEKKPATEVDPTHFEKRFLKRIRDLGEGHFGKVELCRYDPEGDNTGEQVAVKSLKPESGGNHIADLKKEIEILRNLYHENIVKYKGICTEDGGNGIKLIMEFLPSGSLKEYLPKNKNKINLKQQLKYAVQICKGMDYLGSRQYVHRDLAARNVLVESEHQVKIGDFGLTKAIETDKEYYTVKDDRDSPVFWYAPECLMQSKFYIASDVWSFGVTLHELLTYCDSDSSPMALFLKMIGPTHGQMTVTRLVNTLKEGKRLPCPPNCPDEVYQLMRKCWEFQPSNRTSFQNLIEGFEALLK
Tyrosine-protein kinase Blk (Homo sapiens), sequence (P51451 2-505 limits assumed): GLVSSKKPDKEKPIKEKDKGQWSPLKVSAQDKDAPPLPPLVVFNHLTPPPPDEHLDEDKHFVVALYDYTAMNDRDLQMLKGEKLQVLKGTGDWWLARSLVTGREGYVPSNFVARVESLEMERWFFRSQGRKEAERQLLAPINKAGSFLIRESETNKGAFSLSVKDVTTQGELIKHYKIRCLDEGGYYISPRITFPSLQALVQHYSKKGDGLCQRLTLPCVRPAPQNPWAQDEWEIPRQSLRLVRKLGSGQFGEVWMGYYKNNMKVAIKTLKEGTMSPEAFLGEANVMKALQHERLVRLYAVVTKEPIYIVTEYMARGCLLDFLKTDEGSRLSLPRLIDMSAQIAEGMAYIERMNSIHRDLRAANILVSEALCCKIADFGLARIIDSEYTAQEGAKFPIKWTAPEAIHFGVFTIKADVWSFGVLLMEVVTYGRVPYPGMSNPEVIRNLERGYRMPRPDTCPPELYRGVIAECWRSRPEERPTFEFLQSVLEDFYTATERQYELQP
Cyclin-dependent kinase 4 (Homo sapiens), sequence (P11802 whole entry): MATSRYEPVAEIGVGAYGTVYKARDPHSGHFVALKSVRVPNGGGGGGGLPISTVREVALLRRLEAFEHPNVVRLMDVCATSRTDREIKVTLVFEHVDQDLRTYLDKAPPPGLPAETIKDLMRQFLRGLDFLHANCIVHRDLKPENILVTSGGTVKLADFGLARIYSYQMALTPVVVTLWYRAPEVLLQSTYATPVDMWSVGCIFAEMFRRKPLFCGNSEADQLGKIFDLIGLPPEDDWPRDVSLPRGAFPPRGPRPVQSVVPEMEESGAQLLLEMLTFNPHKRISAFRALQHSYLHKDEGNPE
Glycogen synthase kinase-3 alpha (Homo sapiens), sequence (P49840 2-483 limits assumed): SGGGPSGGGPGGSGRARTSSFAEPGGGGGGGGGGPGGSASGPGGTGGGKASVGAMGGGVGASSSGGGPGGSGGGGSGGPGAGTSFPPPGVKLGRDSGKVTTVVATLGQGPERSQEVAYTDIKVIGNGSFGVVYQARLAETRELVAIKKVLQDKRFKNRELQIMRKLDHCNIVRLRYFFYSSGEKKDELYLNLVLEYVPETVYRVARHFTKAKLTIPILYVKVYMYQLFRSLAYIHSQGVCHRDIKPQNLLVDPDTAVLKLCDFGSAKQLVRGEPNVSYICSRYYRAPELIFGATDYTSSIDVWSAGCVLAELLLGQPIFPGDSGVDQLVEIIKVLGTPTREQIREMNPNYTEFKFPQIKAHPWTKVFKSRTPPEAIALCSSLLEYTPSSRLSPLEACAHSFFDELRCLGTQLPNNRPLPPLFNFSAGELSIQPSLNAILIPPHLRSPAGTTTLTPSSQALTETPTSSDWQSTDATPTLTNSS
Tyrosine-protein kinase CSK (Homo sapiens), sequence (P41240 2-450 limits assumed): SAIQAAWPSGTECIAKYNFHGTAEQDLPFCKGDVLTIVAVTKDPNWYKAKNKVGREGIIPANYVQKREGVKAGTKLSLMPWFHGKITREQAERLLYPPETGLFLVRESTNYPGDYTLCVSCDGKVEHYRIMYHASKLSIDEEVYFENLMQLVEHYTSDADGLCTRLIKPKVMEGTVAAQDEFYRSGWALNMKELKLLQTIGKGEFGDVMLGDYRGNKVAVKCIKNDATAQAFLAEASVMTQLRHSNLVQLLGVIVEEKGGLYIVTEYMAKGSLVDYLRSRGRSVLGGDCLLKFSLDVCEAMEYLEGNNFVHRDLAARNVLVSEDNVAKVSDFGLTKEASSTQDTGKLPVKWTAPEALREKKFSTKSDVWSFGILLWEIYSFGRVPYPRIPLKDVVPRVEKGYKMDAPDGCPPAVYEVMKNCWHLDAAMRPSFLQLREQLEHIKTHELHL
STE20-like serine/threonine-protein kinase (Homo sapiens), sequence (Q9H2G2 whole entry, looked up): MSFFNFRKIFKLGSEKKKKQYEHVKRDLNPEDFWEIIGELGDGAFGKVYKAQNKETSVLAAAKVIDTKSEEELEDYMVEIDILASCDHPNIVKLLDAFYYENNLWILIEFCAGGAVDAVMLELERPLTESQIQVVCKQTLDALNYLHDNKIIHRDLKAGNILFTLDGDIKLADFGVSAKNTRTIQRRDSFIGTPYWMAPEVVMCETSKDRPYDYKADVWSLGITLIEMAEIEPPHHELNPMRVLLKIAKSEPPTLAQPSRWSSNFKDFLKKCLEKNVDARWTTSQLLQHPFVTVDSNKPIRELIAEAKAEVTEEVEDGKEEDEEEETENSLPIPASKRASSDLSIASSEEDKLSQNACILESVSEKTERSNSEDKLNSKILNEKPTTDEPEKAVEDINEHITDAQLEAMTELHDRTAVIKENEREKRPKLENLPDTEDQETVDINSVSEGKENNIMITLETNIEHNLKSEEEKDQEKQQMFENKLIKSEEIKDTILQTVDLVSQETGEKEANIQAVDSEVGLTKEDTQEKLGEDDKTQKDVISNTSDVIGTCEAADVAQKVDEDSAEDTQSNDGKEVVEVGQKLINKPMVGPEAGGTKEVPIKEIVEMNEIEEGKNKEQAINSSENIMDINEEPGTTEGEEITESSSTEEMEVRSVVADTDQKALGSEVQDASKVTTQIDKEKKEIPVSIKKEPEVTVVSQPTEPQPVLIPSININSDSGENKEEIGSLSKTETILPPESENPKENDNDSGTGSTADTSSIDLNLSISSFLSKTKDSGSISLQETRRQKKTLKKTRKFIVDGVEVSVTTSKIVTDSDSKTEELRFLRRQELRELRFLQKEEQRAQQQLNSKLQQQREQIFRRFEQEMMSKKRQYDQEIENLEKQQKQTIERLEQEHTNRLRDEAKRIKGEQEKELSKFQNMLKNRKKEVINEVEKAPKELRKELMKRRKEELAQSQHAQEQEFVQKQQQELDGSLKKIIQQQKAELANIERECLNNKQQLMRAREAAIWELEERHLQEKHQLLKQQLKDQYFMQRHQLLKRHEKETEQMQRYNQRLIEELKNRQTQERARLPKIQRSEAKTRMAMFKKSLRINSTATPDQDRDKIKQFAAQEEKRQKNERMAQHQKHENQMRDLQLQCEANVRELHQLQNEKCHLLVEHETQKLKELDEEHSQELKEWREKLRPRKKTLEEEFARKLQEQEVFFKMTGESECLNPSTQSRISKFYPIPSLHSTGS
Fibroblast growth factor receptor 2 (Homo sapiens), sequence (P21802 22-821 limits assumed): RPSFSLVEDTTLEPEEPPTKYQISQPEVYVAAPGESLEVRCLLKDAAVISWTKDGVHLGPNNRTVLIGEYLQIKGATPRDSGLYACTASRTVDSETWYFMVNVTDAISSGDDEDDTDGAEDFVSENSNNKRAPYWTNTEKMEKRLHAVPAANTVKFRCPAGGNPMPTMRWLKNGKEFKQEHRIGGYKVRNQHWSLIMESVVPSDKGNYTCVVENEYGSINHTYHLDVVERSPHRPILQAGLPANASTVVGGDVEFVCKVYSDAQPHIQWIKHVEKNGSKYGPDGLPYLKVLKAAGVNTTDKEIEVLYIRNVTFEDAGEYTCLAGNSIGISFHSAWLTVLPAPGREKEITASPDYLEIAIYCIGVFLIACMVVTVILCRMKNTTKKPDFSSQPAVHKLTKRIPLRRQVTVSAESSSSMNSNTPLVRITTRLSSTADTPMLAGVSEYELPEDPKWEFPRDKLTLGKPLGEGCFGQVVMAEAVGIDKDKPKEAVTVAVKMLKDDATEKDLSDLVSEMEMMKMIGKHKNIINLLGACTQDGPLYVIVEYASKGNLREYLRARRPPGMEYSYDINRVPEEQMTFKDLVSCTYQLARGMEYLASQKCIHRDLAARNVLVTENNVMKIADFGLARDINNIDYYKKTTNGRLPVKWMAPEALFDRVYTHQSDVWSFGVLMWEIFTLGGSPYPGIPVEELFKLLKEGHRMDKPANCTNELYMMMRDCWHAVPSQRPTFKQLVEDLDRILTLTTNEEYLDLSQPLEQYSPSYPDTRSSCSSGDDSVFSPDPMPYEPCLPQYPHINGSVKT

CO[C@@H](C)c1c(Nc2ccc([C@H](N(C)C(=O)C3CCS(=O)(=O)CC3)C(F)(F)F)cc2)cnc2cc(Cl)nn12 [NVS-MALT1]
residual activity [1]: 76%
residual activity [2]: 89%
residual activity [3]: 72%
residual activity [4]: 100%
residual activity [5]: 100%
residual activity [6]: 87%
residual activity [7]: 91%
residual activity [8]: 79%
residual activity [9]: 80%
residual activity [10]: 100%
residual activity [11]: 100%
residual activity [12]: 93%
residual activity [13]: 86%
residual activity [14]: 100%
residual activity [15]: 89%
residual activity [16]: 100%
residual activity [17]: 100%
residual activity [18]: 91%
residual activity [19]: 100%
residual activity [20]: 91%
residual activity [21]: 100%
residual activity [22]: 85%
residual activity [23]: 86%
residual activity [24]: 70%
residual activity [25]: 100%
residual activity [26]: 100%
residual activity [27]: 100%
residual activity [28]: 76%
residual activity [29]: 100%
residual activity [30]: 100%
residual activity [31]: 71%
residual activity [32]: 86%
residual activity [33]: 100%
residual activity [34]: 94%
residual activity [35]: 83%
residual activity [36]: 88%
residual activity [37]: 65%
residual activity [38]: 90%
residual activity [39]: 100%
residual activity [40]: 100%
residual activity [41]: 86%
residual activity [42]: 81%
residual activity [43]: 100%
inhibition [44]: 18.8%

CO[C@@H](C)c1c(Nc2ccc([C@@H](N(C)C(=O)C3CCS(=O)(=O)CC3)C(F)(F)F)cc2)cnc2cc(Cl)nn12 [NVS-MALT1-C]
residual activity [1]: 75%
residual activity [2]: 89%
residual activity [3]: 100%
residual activity [4]: 65%
residual activity [5]: 78%
residual activity [6]: 56%
residual activity [7]: 84%
residual activity [8]: 90%
residual activity [9]: 98%
residual activity [10]: 100%
residual activity [11]: 100%
residual activity [12]: 84%
residual activity [13]: 41%
residual activity [14]: 100%
residual activity [15]: 95%
residual activity [16]: 96%
residual activity [17]: 100%
residual activity [18]: 100%
residual activity [19]: 100%
residual activity [20]: 84%
residual activity [21]: 100%
residual activity [22]: 59%
residual activity [23]: 94%
residual activity [24]: 96%
residual activity [25]: 100%
residual activity [26]: 89%
residual activity [27]: 100%
residual activity [28]: 89%
residual activity [29]: 100%
residual activity [30]: 85%
residual activity [31]: 77%
residual activity [32]: 94%
residual activity [33]: 100%
residual activity [34]: 90%
residual activity [35]: 84%
residual activity [36]: 88%
residual activity [37]: 77%
residual activity [38]: 87%
residual activity [39]: 100%
residual activity [40]: 91%
residual activity [41]: 94%
residual activity [42]: 83%
residual activity [43]: 100%
inhibition [44]: 56.8%
